Experimental data: ChEMBL document CHEMBL3137547, “Open Source Malaria Deposition 2. http://malaria.ourexperiment.org”

Each compound was assayed on Plasmodium falciparum (assay: OSM: Erythrocyte assay. NF54 with 3H-Hypoxanthine at 72hr time point.).
Format: functional, organism-based
Work on COc1ccc2ccc(Oc3cncc4nnc(-c5ccc(OC(F)F)cc5)n34)cc2n1 yielded an EC50 of 1670 nM.
For O=C(NC1CCc2cc(Cl)ccc21)c1cncc2nnc(-c3ccc(OC(F)F)cc3)n12 (stereo not drawn), the EC50 was 547 nM.
In the case of Cc1nn(-c2ccc(F)cc2)c(C)c1-c1nnc2cncc(C(=O)Nc3ccnc(C(F)(F)F)c3)n12, the EC50 is reported as 10000 nM.
Fc1ccc(C2(C(Oc3cncc4nnc(-c5ccc(OC(F)F)cc5)n34)C(F)(F)F)CC2)cc1F (stereo not drawn) showed an EC50 of 10000 nM.
Compound Cn1cc2ccc(Oc3cncc4nnc(-c5ccc(OC(F)F)cc5)n34)cc2n1 has an EC50 of 6200 nM.
OC(COc1cncc2nnc(-c3ccc(OC(F)F)cc3)n12)c1ccc(F)c(F)c1 (stereo not drawn) showed an EC50 of 124 nM.
With FC(F)Oc1ccc(-c2nnc3cncc(OCc4cccc5ccccc45)n23)cc1 the EC50 was 1670 nM.
Work on Fc1ccc([C@@H]2[C@@H](Oc3cncc4nnc(-c5ccc(OC(F)F)cc5)n34)CN2C2CC2)cc1F yielded an EC50 of 731 nM.
CC(O)(COc1cncc2nnc(-c3ccc(OC(F)F)cc3)n12)c1ccc(F)c(F)c1 (stereo not drawn) gave an EC50 of 101 nM.
FC(F)Oc1ccc(-c2nnc3cncc(Oc4cccc(Oc5ccccn5)c4)n23)cc1 was tested, and the EC50 was 6040 nM.
FC(F)Oc1ccc(-c2nnc3cncc(OCC4CCc5cc(Cl)ccc54)n23)cc1 (stereo not drawn) gave an EC50 of 1460 nM.
For CC(F)(COc1cncc2nnc(-c3ccc(OC(F)F)cc3)n12)c1ccc(F)c(F)c1 (stereo not drawn), the EC50 was 123 nM.
With FC(F)Oc1ccc(-c2nnc3cncc(Oc4ccc5nc(C(F)(F)F)ncc5c4)n23)cc1 the EC50 was 2020 nM.
For Fc1ccc(C(F)COc2cncc3nnc(-c4ccc(OC(F)F)cc4)n23)cc1F (stereo not drawn), the EC50 was 65.4 nM.
Compound FC(F)Oc1ccc(-c2nnc3cncc(Oc4ccc5ccsc5c4)n23)cc1 has an EC50 of 576 nM.
For Fc1ccc(CCOc2ccc3nnc(-c4ccc(OC(F)F)cc4)n3n2)cc1F, the EC50 was 6780 nM.
In the case of Fc1cc2ccc(Oc3cncc4nnc(-c5ccc(OC(F)F)cc5)n34)cc2cc1F, the EC50 is reported as 839 nM.
With Fc1cc(F)c2ccc(Oc3cncc4nnc(-c5ccc(OC(F)F)cc5)n34)cc2c1 the EC50 was 173 nM.
In the case of Fc1ccc(CCNc2ccc3nnc(-c4ccc(OC(F)F)cc4)n3n2)cc1, the EC50 is reported as 510 nM.
Work on O=C(Cc1cccc(Cl)c1)Nc1cn2c(-c3ccc(OC(F)F)cc3)nnc2cn1 yielded an EC50 of 10000 nM.
For N#Cc1ccc(-c2nnc3ccc(NCCc4cccnc4)nn23)cc1, the EC50 was 10000 nM.
Compound FC(F)Oc1ccc(-c2nnc3cncc(Oc4ccc(Cl)c(C(F)(F)F)c4)n23)cc1 has an EC50 of 597 nM.
In the case of N[C@@H](COc1cncc2nnc(-c3ccc(OC(F)F)cc3)n12)c1ccc(F)c(F)c1, the EC50 is reported as 278 nM.
For OC[C@H](Nc1cncc2nnc(-c3ccc(OC(F)F)cc3)n12)c1ccc(F)c(F)c1, the EC50 was 570 nM.
Work on Fc1ccc(-c2cnn(-c3cncc4nnc(-c5ccc(OC(F)F)cc5)n34)c2)cc1F yielded an EC50 of 6720 nM.
Compound O=C(Nc1ccc(F)cc1Cl)c1cncc2nnc(-c3ccc(OC(F)F)cc3)n12 has an EC50 of 5580 nM.
In the case of Fc1ccc(Nc2cn3c(-c4ccc(OC(F)F)cc4)nnc3cn2)cc1F, the EC50 is reported as 10000 nM.
For O=C(NCc1cc(Cl)ccc1Cl)c1cncc2nnc(-c3ccc(OC(F)F)cc3)n12, the EC50 was 332 nM.
Work on O=C(NCc1cccc(C(F)(F)F)c1Cl)c1cncc2nnc(-c3ccc(OC(F)F)cc3)n12 yielded an EC50 of 309 nM.
With Fc1ccc(Cc2nccn2-c2cncc3nnc(-c4ccc(OC(F)F)cc4)n23)cc1F the EC50 was 10000 nM.
Cc1nn(-c2ccc(F)cc2)c(C)c1-c1nnc2cncc(OCC(F)(F)F)n12 was tested, and the EC50 was 10000 nM.
Compound FC(F)Oc1ccc(-c2nnc3cncc(Oc4ccc(S(F)(F)(F)(F)F)cc4)n23)cc1 has an EC50 of 263 nM.
Fc1ccc(Oc2cn3c(-c4ccc(OC(F)F)cc4)nnc3cn2)cc1F was tested, and the EC50 was 3450 nM.
Work on Fc1ccc(CCNc2cn3c(-c4ccc(OC(F)F)cc4)nnc3cn2)cc1 yielded an EC50 of 10000 nM.
Cc1nn(-c2ccc(F)cc2)c(C)c1-c1nnc2cncc(Oc3ccc(Cl)c(Cl)c3)n12 was tested, and the EC50 was 10000 nM.
Compound Fc1ccc([C@H]2[C@@H](Oc3cncc4nnc(-c5ccc(OC(F)F)cc5)n34)CN2C2CC2)cc1F has an EC50 of 610 nM.
O=C1[C@H](Oc2cncc3nnc(-c4ccc(OC(F)F)cc4)n23)[C@H](c2ccc(F)c(F)c2)N1C1CC1 showed an EC50 of 1120 nM.
With Cn1ccc2cc(Oc3cncc4nnc(-c5ccc(OC(F)F)cc5)n34)ccc21 the EC50 was 1980 nM.
O=C1[C@@H](Oc2cn3c(-c4ccc(OC(F)F)cc4)nnc3cn2)[C@@H](c2ccc(F)c(F)c2)N1C1CC1 showed an EC50 of 10000 nM.
FC(F)Oc1ccc(-c2nnc3cncc(Oc4ccc5ccc(C(F)(F)F)nc5c4)n23)cc1 was tested, and the EC50 was 1630 nM.
For Cc1noc2cc(Oc3cncc4nnc(-c5ccc(OC(F)F)cc5)n34)ccc12, the EC50 was 1930 nM.
CC1=CC(C)(C)Oc2cc(Oc3cncc4nnc(-c5ccc(OC(F)F)cc5)n34)ccc21 showed an EC50 of 1820 nM.
In the case of Cn1ncc2ccc(Oc3cncc4nnc(-c5ccc(OC(F)F)cc5)n34)cc21, the EC50 is reported as 10000 nM.
